From PMC11189555, “Aryl amino acetamides prevent Plasmodium falciparum ring development via targeting the lipid-transfer protein PfSTART1” (Nature Communications, 2024)
Where “and” joins values, the source holds several entries; their conditions need not be identical. Identical values can stand only once. Like-named read-outs stand apart in the source and are kept apart here.

Test system: SLI-N330K parasites
Assay: Growth inhibition assay (72 h, LDH activity)
Format: cell-based, Plasmodium falciparum
Details: for Growth inhibition, (1 - av / DMSO) x 100: Fig 2B source data, per biological replicate; for EC50: Plasmodium falciparum
Protocol: Parasite growth assays with inhibitory compounds were performed as per[11] and are fully described in the Supplementary Information.
Molecular biology and transfection of P. falciparum: Selection Linked Integration […]
To introduce the PfSTART1 mutations, the second half of the coding sequence of pfstart1 (PF3D7_0104200), was recodonised without introns to the bias of Saccharomyces cerevisiae containing either WT, N309K or N330K mutations, and synthesised as gBlock fragments (Integrated DNA Technologies). The first 819 bp of the 5′ native sequence of pfstart1 was amplified from gDNA, to form the 5’ homology block (5’ HB). The 3′ recodonised gBlock fragment comprising of the last 552 bp of either the WT, N309K or N330K pfstart1 to form the ‘recodon’ block (primers listed in Table S2). The 5’ HB and recodon products were sewn together by overlapping PCR to reconstitute the full coding sequence of pfstart1. These blocks (WT/N309K/N330K) were digested with BglII/PstI, and inserted into the parasite vector p-HA-2A-Neo-glmS
1. This plasmid contains an in -frame haemagglutinin (HA) epitope for protein identification and a P2A peptide (2A) to skip continuous peptide bond synthesis of a downstream neomycin resistance gene ( NeoR).
Parasites containing the transfected DNA were selected using 2.5 nM WR99210 (Jacobus). To select for parasites in which single crossover integration had occurred into the pfstart1 locus, parasites were treated with 400 μg/mL G418 (geniticin, Sigma Aldrich) for 14 days: only parasites that have integrated the construct into their genome expressed the neomycin resistance gene together with the PfSTART1 protein.
Parasite lines were cloned using limiting dilution. These clones were then tested on Western Blot (for correct HA-tagging and protein size), and correct integration and sequence were tested by PCR analysis: PCR on the gDNA was conducted using the primers START_5’UTR.F and START_Seq.R (Table S2). […]
Growth inhibition assays. Synchronised ring-stage parasites (0.3-0.6% parasitemia, 2% haematocrit) were grown for 72 h in a serial-dilution of the compound under […]
and compound 4. Note that M-833 was first purchased from MolPort (MolPort -002-267-916) then made in-house at WEHI: the differences observed in EC50s across experiments are attributed to the different batches of M -833. For some experiments, 0, 0.25 or 2.5 mM of glucosamine (GlcN) was also added. Experiments were set up in technical duplicates or triplicates. Following a freeze -thaw cycle, lactate dehydrogenase (LDH) activity was assessed as an indicator of parasite growt h 5. 30 μL of parasite culture was incubated for 30 min in the dark with 75 μL Malstat mixture (0.1 M Tris pH 9.0, 20 g/L lactic acid, pH 7.5, 0.2% Triton-X100, 0.5 g/L acetylpyridine adenine dinucleotide (APAD, Sigma), 200 μg/mL nitroblue tetrazolium (NBT; Sigma), 1 μg/mL phenozine ethosulfate (PES; Sigma)). Absorbance was then measured at 650 nm, transformed using the formula below, plotted against the logarithm of the concentrations, and a non-linear regression (log(inhibitor) vs. response, variable slope) was calculated using GraphPad Prism to assess the half-inhibitory […]
Growth inhibition % = (1 − average(sample)− average(uRBC)) ∗ 100 […]
The DMSO samples were also used to assess growth of parasite in the presence of 0.25 and 2.5 mM GlcN (normalised by DMSO in 0 mM GlcN).
Egress, invasion & recovery assay. To measure egress, invasion and follow up recovery in the presence of different compounds, we adapted the method developed in6, using Hyp1-Nluc parasites7. These parasites episomally express the exported PEXEL protein Hyp1 (PF3D7_0113300) tagged with a NanoLuc luciferase (NLuc) and were selected with 2.5 nM WR99210 (Jacobus). Highly synchronised schizonts were obtained using ML10 (LifeArc) and sorbitol synchronisation, and Percoll-purified (the culture was gently layered over 67% Percoll (Cytiva) in RPMI, and centrifuged for 15 min at 1500 g and the schizont layer was collected and washed). […]

Cc1cc(Cl)c(S(=O)(=O)N2CCCC2)cc1OCC(=O)NC1CCCCC1 [M-833]
sample/DMSO (0.123457 uM M-833, START(N330K), 0.25 mM GlcN, biological replicate 4): -2.981 | sample/DMSO (0.123457 uM M-833, START(N330K), 2.5 mM GlcN, biological replicate 1): 25.4075 | sample/DMSO (0.123457 uM M-833, START(N330K), 2.5 mM GlcN, biological replicate 2): 9.59 | sample/DMSO (0.123457 uM M-833, START(N330K), 2.5 mM GlcN, biological replicate 3): 1.226 | sample/DMSO (0.123457 uM M-833, START(N330K), 2.5 mM GlcN, biological replicate 4): -0.1405 | sample/DMSO (0.37037 uM M-833, START(N330K), 0 mM GlcN, biological replicate 1): 19.3431 | sample/DMSO (0.37037 uM M-833, START(N330K), 0 mM GlcN, biological replicate 2): 2.274 | sample/DMSO (0.37037 uM M-833, START(N330K), 0 mM GlcN, biological replicate 3): 7.66 | sample/DMSO (0.37037 uM M-833, START(N330K), 0 mM GlcN, biological replicate 4): -3.175 | sample/DMSO (0.37037 uM M-833, START(N330K), 0.25 mM GlcN, biological replicate 1): 19.0968 | sample/DMSO (0.37037 uM M-833, START(N330K), 0.25 mM GlcN, biological replicate 2): 15.8158 | sample/DMSO (0.37037 uM M-833, START(N330K), 0.25 mM GlcN, biological replicate 3): 6.853 | sample/DMSO (0.37037 uM M-833, START(N330K), 0.25 mM GlcN, biological replicate 4): -2.547 | sample/DMSO (0.37037 uM M-833, START(N330K), 2.5 mM GlcN, biological replicate 1): 28.3178 | sample/DMSO (0.37037 uM M-833, START(N330K), 2.5 mM GlcN, biological replicate 2): 11.3273 | sample/DMSO (0.37037 uM M-833, START(N330K), 2.5 mM GlcN, biological replicate 3): 5.76 | sample/DMSO (0.37037 uM M-833, START(N330K), 2.5 mM GlcN, biological replicate 4): 6.979 | sample/DMSO (1.11111 uM M-833, START(N330K), 0 mM GlcN, biological replicate 1): 22.4532 | sample/DMSO (1.11111 uM M-833, START(N330K), 0 mM GlcN, biological replicate 2): 7.959 | sample/DMSO (1.11111 uM M-833, START(N330K), 0 mM GlcN, biological replicate 3): 16.7199 | sample/DMSO (1.11111 uM M-833, START(N330K), 0 mM GlcN, biological replicate 4): 4.969 | sample/DMSO (1.11111 uM M-833, START(N330K), 0.25 mM GlcN, biological replicate 1): 24.0145 | sample/DMSO (1.11111 uM M-833, START(N330K), 0.25 mM GlcN, biological replicate 2): 17.1338 | sample/DMSO (1.11111 uM M-833, START(N330K), 0.25 mM GlcN, biological replicate 3): 18.125 | sample/DMSO (1.11111 uM M-833, START(N330K), 0.25 mM GlcN, biological replicate 4): 8.022 | sample/DMSO (1.11111 uM M-833, START(N330K), 2.5 mM GlcN, biological replicate 1): 36.9907 | sample/DMSO (1.11111 uM M-833, START(N330K), 2.5 mM GlcN, biological replicate 2): 15.1494 | sample/DMSO (1.11111 uM M-833, START(N330K), 2.5 mM GlcN, biological replicate 3): 17.4656 | sample/DMSO (1.11111 uM M-833, START(N330K), 2.5 mM GlcN, biological replicate 4): 7.728 | Growth inhibition, (1 - av / DMSO) x 100 (SLI-N330K, M-833 conc 0.00304832 (unit not given)): -17.2829% and -4.43% and -6.85% | Growth inhibition, (1 - av / DMSO) x 100 (SLI-N330K, M-833 conc 0.00914495 (unit not given)): -20.2465% and -6.679% and -8.021% | Growth inhibition, (1 - av / DMSO) x 100 (SLI-N330K, M-833 conc 0.0274348 (unit not given)): -22.4472% and -9.048% and -10.9244% | Growth inhibition, (1 - av / DMSO) x 100 (SLI-N330K, M-833 conc 0.0823045 (unit not given)): -27.3474% and -6.202% and -4.991% | Growth inhibition, (1 - av / DMSO) x 100 (SLI-N330K, M-833 conc 0.246914 (unit not given)): -20.5399% and -4.464% and 0.9677% | Growth inhibition, (1 - av / DMSO) x 100 (SLI-N330K, M-833 conc 0.740741 (unit not given)): -11.4437% and -0.9712% and 2.699% | Growth inhibition, (1 - av / DMSO) x 100 (SLI-N330K, M-833 conc 2.22222 (unit not given)): 10.9155% and 8.4% and 12.8088% | Growth inhibition, (1 - av / DMSO) x 100 (SLI-N330K, M-833 conc 6.66667 (unit not given)): 48.6796% and 44.0109% and 38.2735% | Growth inhibition, (1 - av / DMSO) x 100 (SLI-N330K, M-833 conc 20 (unit not given)): 69.4542% and 76.7081% and 72.5236% | sample/DMSO (M-833 3.33333 uM, START(N330K), 0 mM GlcN, biological replicates 1-4): 23.2009 and 27.766 and 32.1009 and 22.2063 | sample/DMSO (M-833 3.33333 uM, START(N330K), 0.25 mM GlcN, biological replicates 1-4): 36.1845 and 29.2292 and 28.75 and 22.2222 | sample/DMSO (M-833 3.33333 uM, START(N330K), 2.5 mM GlcN, biological replicates 1-4): 45.6636 and 29.3607 and 33.6678 and 26.3232 | sample/DMSO (M-833 10 uM, START(N330K), 0 mM GlcN, biological replicates 1-4): 60.4059 and 63.1206 and 59.1558 and 63.3004 | sample/DMSO (M-833 10 uM, START(N330K), 0.25 mM GlcN, biological replicates 1-4): 65.2315 and 63.5636 and 70.0446 and 58.3469 | sample/DMSO (M-833 10 uM, START(N330K), 2.5 mM GlcN, biological replicates 1-4): 68.4226 and 62.1265 and 64.6971 and 47.1194 | EC50 (Fig 2B, SLI-N330K, 72 h, n = 3, unit only in x-axis title, read-out: EC50 (95% confidence interval)): 6.27 µM | EC50 (Fig 3C, SLI-N330K, 2.5 mM GlcN, n = 4, unit on plot axis, read-out: EC50 M-833 (95% confidence interval)): > 3 µM | fold more resistant than the 3D7 parental parasites (SLI-N330K, Fig 2B): 64 fold
